Experimental data from patent US8048889B2, “3,4-disubstituted coumarin and quinolone compounds” (XTL Biopharmaceuticals Ltd., priority 2005, dated 2011).

Assays:
Huh-Luc-Neo cells = assay: CellTiter-Glo Cell Viability Assay; type: cell-based, human; conditions: for Toxicity % Inhibition at 50 uM (2 doses): inhibition of cell viability at 50 uM, conditions as in Replicon RNA Assay; for Toxicity % Inhibition at 100 um (1 dose): inhibition of cell viability at 100 um, conditions as in Replicon Luciferase Assay (48 h)
Experimental: (§1) Day 2 Reagent Preparation and Luciferase Assay: The Bright-Glo Luciferase Assay Buffer (Promega) is thawed and equilibrated to room temperature prior to use. The lyophilized Bright-Glo Luciferase Assay Substrate is equilibrated to room temperature prior to use. 10 ml of Bright-Glo Luciferase Assay Buffer is transferred to 1 vial of Bright-Glo Luciferase Assay Substrate bottle and mixed by gently with a Vortex. 100 ul of Bright-Glo Luciferase Assay reagent (Bright-Glo Luciferase Assay Buffer+Bright-Glo Luciferase Assay Substrate Mixture) is added to each well. The well contents are mixed for 5 min. on an orbital shaker at room temperature to induce cell lysis and the luminescence is then measured using a luminometer. The data is analyzed and IC50s are determined using GraphPad Prism 4 software. Hits validated in the Replicon Luciferase assay have IC50s<8.0 μM and show<30% inhibition of Cell Viability at a compound concentration of 100 μM (Cell Titer Glow Assay, cell viability assay conditions identical to HCV Replicon Luciferase Assay conditions).
(§2) Day 3, Quantitative PCR Based Measurement of HCV RNA (Taqman Assay): Quantitative PCR analysis to measure HCV RNA expression from cDNA synthesized on Day 2 is performed using the ABI 9700 HT Sequence Detection System (Applied Biosystems) as previously described (Lohman et al, Science 285, 110-113, 1999). The data is analyzed and IC50s are determined using GraphPad Prism 4 software. Hits validated in the Replicon RNA Assay have IC50s<8.0 μM and show <30% inhibition of Cell Viability at a compound concentration of 50 μM (Cell Titer Glow Assay, cell viability assay conditions identical to HCV Replicon RNA Assay conditions).
(§3) Day 0, Cell Seeding and Compound Treatment: Huh-Luc-Neo Cells are seeded at 25,000/well in an opaque-walled 96 plate with Growth Medium (DMEM phenol red free+PS+2 mM glutamine; 100 ul/well). The compounds to be tested for inhibition of cell viability are added to the experimental wells (10 μl/well at 10× assay concentration) and the cells are then incubated (5% CO2, 37° C.) for 48 h.
Day 2, Reagent Preparation and Assay: The CellTiter-Glo Buffer is thawed and equilibrated to room temperature prior to use. The lyophilized CellTiter-Glo Substrate is equilibrated to room temperature prior to use. 10 ml of CeliTiter-Glo Buffer is transferred to 1 vial of CellTiter-Glo Substrate and mixed by gently with a Vortex. 100 μl of CellTiter-Glo Assay reagent (CellTiter-Glo Buffer+CellTiter-Glo Substrate Mixture) is added to each well. The well contents are mixed for 5 min. on an orbital shaker at room temperature to induce cell lysis and the luminescence is then measured using a luminometer.

[1] = test system: HCV Replicon (HCV IRES driven luciferase reporter in Huh-Luc-Neo cells); assay: HCV Replicon Luciferase Assay; type: cell-based; conditions: Hepatitis C virus, 48 h, no unit in table, hit threshold in μM
Experimental: (§4) The identification of inhibitors of HCV replication and/or proliferation has been facilitated by the development of a cell based system to study HCV replication and assay for HCV inhibitors. Inhibition of HCV replication may be performed using the HCV Replicon Assay developed in the laboratories of Bartenschlager (Lohman et al, Science 285, 110-113, 1999) and Rice (Blight et al, Science 290, 1972-1974, 2000). The assay is performed using the Huh-Luc-Neo cell line (Lohman et al, Science 285, 110-113, 1999). Huh-Luc-Neo cells are a human hepatoma cell line (Huh-7) stably expressing a bi-cistronic subgenomic replicon containing the HCV IRES in which the structural proteins of HCV had been deleted and replaced by a construct containing sequences coding for the firefly luciferase reporter gene, the neomycin selectable marker and the EMCV IRES to direct expression of a truncated HCV genome expressing the […] NS3, NS4A, NS4B, NS5A, and NS5B. HCV targets through which inhibitors could act to inhibit replication include the NS3 protease, the helicase/ATPase, NS5A, the NS5B- RNA dependent RNA polymerase, and the HCV IRES.
(§5) Expression of HCV IRES driven luciferase reporter activity and HCV RNA is measured to obtain indirect and direct measures of replication of HCV RNA respectively. Inhibitors of HCV replication and/or proliferation are determined by initially identifying molecules that inhibit expression of the HCV IRES driven luciferase reporter in this HCV Replicon Luciferase Assay. Cell viability assays and control cell based luciferase assays are then run on hits identified in the HCV Replicon Luciferase Assay to eliminate cytoxic compounds and non-specific compounds which act by inhibiting the luciferase enzyme.
as §3, with “0” for “0,”, “μl/well).” for “ul/well).”, “tested” for “tested for inhibition of cell viability”
as §1

[2] = test system: HCV Replicon (HCV RNA in Huh-Luc-Neo cells); assay: HCV Replicon RNA Assay (Taqman); type: cell-based, Hepatitis C virus; conditions: Hepatitis C virus, compound added day 0 and day 1, no unit in table, hit threshold in μM
Experimental: as §4, §5
as §3, with “μl/well).” for “ul/well).”, “tested” for “tested for inhibition of cell viability”, “C.).” for “C.) for 48 h.”
Day 1, Media Change and Compound Treatment: 24 hours after the initial compound treatment the cell culture media is aspirated from the wells and fresh Growth Medium is added (DMEM phenol red free+PS+2 mM glutamine; 100 μl/well). The compounds to be tested are then added to the appropriate experimental wells (10 μl/well at 10 × assay concentration) and the cells are then incubated (5% CO2, 37° C.) for an additional 24 hrs.
Day 2, RNA Isolation and cDNA Synthesis: The cells are washed with 1× Phosphate Buffered Saline (PBS) once.
as §2

## COc1ccc(-c2c(OCc3cccc(C(F)(F)F)c3)c3ccccc3oc2=O)cc1 [VQ_36312]
Huh-Luc-Neo cells
  Toxicity % Inhibition at 50 uM (2 doses): 40.8%
  Toxicity % Inhibition at 100 um (1 dose): 5.0%
[1]
  IC50: 3.06 µM
[2]
  IC50: 0.89 µM

## COC(=O)CNCc1c(Nc2ccc(C)cc2)c2ccccc2oc1=O [VQ_36341]
Huh-Luc-Neo cells
  Toxicity % Inhibition at 50 uM (2 doses): 31.2%
  Toxicity % Inhibition at 100 um (1 dose): 14.6%
[1]
  IC50: 0.28 µM
[2]
  IC50: 0.4 µM

## Cc1ccc(Nc2c(CNc3ncccn3)c(=O)oc3ccccc23)cc1 [VQ_36343]
Huh-Luc-Neo cells
  Toxicity % Inhibition at 50 uM (2 doses): 37.9%
  Toxicity % Inhibition at 100 um (1 dose): 21.1%
[1]
  IC50: 0.13 µM
[2]
  IC50: 0.16 µM

## COc1ccc(Nc2c(/C=N/C3CCCCC3)c(=O)oc3ccccc23)cc1 [VQ_36467]
Huh-Luc-Neo cells
  Toxicity % Inhibition at 50 uM (2 doses): 13.9%
  Toxicity % Inhibition at 100 um (1 dose): 22.8%
[1]
  IC50: 51.1 µM
[2]
  IC50: 0.46 µM

## CCCCCC/N=C/c1c(Nc2ccc(OC)cc2)c2ccccc2oc1=O [VQ_36468]
Huh-Luc-Neo cells
  Toxicity % Inhibition at 50 uM (2 doses): 16.3%
  Toxicity % Inhibition at 100 um (1 dose): 40.7%
[1]
  IC50: 43.3 µM
[2]
  IC50: 0.71 µM

## COc1ccc(Nc2c(/C=N/c3nc4ccccc4s3)c(=O)oc3ccccc23)cc1 [VQ_36469]
Huh-Luc-Neo cells
  Toxicity % Inhibition at 50 uM (2 doses): 3.3%
  Toxicity % Inhibition at 100 um (1 dose): 14.7%
[1]
  IC50: 53.6 µM
[2]
  IC50: 4.16 µM

## COc1ccc(Nc2c(/C=N/c3ncccn3)c(=O)oc3ccccc23)cc1 [VQ_36470]
Huh-Luc-Neo cells
  Toxicity % Inhibition at 50 uM (2 doses): −2.7%
  Toxicity % Inhibition at 100 um (1 dose): 12.5%
[1]
  IC50: 59.9 µM
[2]
  IC50: 4.08 µM

## COc1ccc(Nc2c(/C=N/c3ccc(Cl)cc3)c(=O)oc3ccccc23)cc1 [VQ_36471]
Huh-Luc-Neo cells
  Toxicity % Inhibition at 50 uM (2 doses): 15.2%
  Toxicity % Inhibition at 100 um (1 dose): 9.8%
[1]
  IC50: 0.04 µM
[2]
  IC50: 1.78 µM

## COc1ccc(Nc2c(/C=N/c3ccc(C)cc3)c(=O)oc3ccccc23)cc1 [VQ_36472]
Huh-Luc-Neo cells
  Toxicity % Inhibition at 50 uM (2 doses): 6.5%
  Toxicity % Inhibition at 100 um (1 dose): 5.9%
[1]
  IC50: 0.03 µM
[2]
  IC50: 0.85 µM

## COc1ccc(/N=C/c2c(Nc3ccc(OC)cc3)c3ccccc3oc2=O)cc1 [VQ_36473]
Huh-Luc-Neo cells
  Toxicity % Inhibition at 50 uM (2 doses): 10.7%
  Toxicity % Inhibition at 100 um (1 dose): 4.3%
[1]
  IC50: 0.02 µM
[2]
  IC50: 1.71 µM

## COc1ccc(Nc2c(/C=N/c3cc(Cl)cc(Cl)c3)c(=O)oc3ccccc23)cc1 [VQ_36594]
Huh-Luc-Neo cells
  Toxicity % Inhibition at 50 uM (2 doses): 13.7%
  Toxicity % Inhibition at 100 um (1 dose): 9.1%
[1]
  IC50: 0.74 µM
[2]
  IC50: > 30 µM
